Reference: ChEMBL document CHEMBL3994639, “Identification of novel ROS inducer by merging the fragments of piperlongumine and dicoumarol” (Bioorg Med Chem Lett, 2017)
Converted amounts (≈) assume the structure as drawn. The source made the active and inactive calls. No cut-off for these calls is given here.

Columns and labels:
A549 [1] = assay: Antitumor activity in human A549 cells xenografted in athymic nude mouse assessed as tumor growth inhibition at 5 mg/kg, ip administered every other day for 21 days; assay type: functional; details: 504 h, read-out: TGI
HepG2 = assay: Cytotoxicity against human HepG2 cells assessed as growth inhibition after 72 hrs by MTT assay; assay type: functional, cell-based; details: HepG2, 72 h
HCT-116 = assay: Cytotoxicity against human HCT116 cells assessed as growth inhibition after 72 hrs by MTT assay; assay type: functional, cell-based; details: HCT-116, 72 h
[2] = Permeability of the compound at pH 7.4; assay type: physicochemical; details: not told, read-out: permeability
[3] = Intrinsic solubility of the compound; assay type: physicochemical; details: read-out: Intrinsic_solubility
MRC5 = assay: Cytotoxicity against human MRC5 cells after 72 hrs by MTT assay; assay type: cell-based; details: MRC5, 72 h
[4] = Lipophilicity, log D of compound at pH 7.4; assay type: physicochemical; details: buffer
A549 [5] = assay: Cytotoxicity against human A549 cells assessed as growth inhibition after 72 hrs by MTT assay; assay type: functional, cell-based; details: A549, 72 h
A549 [6] = assay: Induction of apoptosis in human A549 cells assessed as nuclei condensation after 24 hrs by DAPI staining based immunofluorescence microscopic analysis; assay type: functional, cell-based
Mus musculus = assay: Toxicity in human A549 cells xenografted athymic nude mouse assessed as body weight loss at 5 mg/kg, ip administered every other day for 21 days; assay type: organism-based; details: in vivo, 504 h

Row | Papp [2] [×10⁻⁶ cm/s] | solubility [3] [µg/mL] | logD [4] | Structure (SMILES) | inhibition in vivo at 5 mg/kg (A549 [1]) [%] | IC50 (HepG2) [µM] | IC50 (HCT-116) [µM] | IC50 (MRC5) [µM] | IC50 (A549 [5]) [µM] | Activity (A549 [6]) | Activity (Mus musculus)
1 | 24.6 | 0.75 (≈ 2.36 µM) | 2.84 | COc1cc(/C=C/C(=O)N2CCC=CC2=O)cc(OC)c1OC [PIPLARTINE] | 41.2 | 8.9 | 9.2 | 37 | 10 | – | –
2 | 1.98 | – | – | CC(C(=O)O)c1cccc(C(=O)c2ccccc2)c1 (configuration not stated) [KETOPROFEN] | – | – | – | – | – | – | –
3 | – | – | – | O=C1CCCCN1C(=O)CCc1c(O)c2ccccc2oc1=O | – | > 90 | > 90 | 58 | > 90 | – | –
4 | – | – | – | Cc1cc2oc(=O)c(/C=C/C(=O)N3CCC=CC3=O)c(O)c2cc1C | – | 7.8 | 5.1 | 35 | 15 | – | –
5 | – | – | – | COc1ccc2oc(=O)c(/C=C/C(=O)N3CCC=CC3=O)c(O)c2c1 | – | 7.1 | 10 | 53 | 9.8 | – | –
6 | – | – | – | COc1ccc2c(O)c(/C=C/C(=O)N3CCC=CC3=O)c(=O)oc2c1 | – | 12 | 18 | 31 | 11 | – | –
7 | 117 | – | – | CC(C)NCC(O)COc1cccc2ccccc12 (configuration not stated) [PROPRANOLOL] | – | – | – | – | – | – | –
8 | – | – | – | O=C1C=CCCN1C(=O)/C=C/c1c(O)c2ccccc2oc1=O | – | 6.7 | 15 | 22 | 12 | – | –
9 | – | – | – | O=C1C=CCCN1C(=O)/C=C/c1c(O)c2ccc(Cl)cc2oc1=O | – | 15 | 12 | 19 | 6.5 | – | –
10 | 20.2 | 316 (≈ 787 µM) | – | COc1cc2c(O)c(/C=C/C(=O)N3CCC=CC3=O)c(=O)oc2c(OC)c1OC | 48.5 | 5.7 | 3.2 | 57 | 4.2 | Active | Non-Toxic
11 | – | – | – | O=C1C=CCCN1C(=O)/C=C/c1c(O)c2ccc(F)cc2oc1=O | – | 9.7 | 11 | 8.9 | 18 | – | –
